{"source": "patent US11638765B2", "about": "“Double-labeled probe for molecular imaging and use thereof” (Deutsches Krebsforschungszentrum, priority 2017, dated 2023)", "key": {"PSMA (PSMA+ LNCaP cells)": {"molecular_target": "T1, PSMA (PSMA+ LNCaP cells) (Homo sapiens, UniProt Q04609)", "T1 construct": "host or cells: LNCaP cells", "T1 sequence (Q04609 whole entry)": "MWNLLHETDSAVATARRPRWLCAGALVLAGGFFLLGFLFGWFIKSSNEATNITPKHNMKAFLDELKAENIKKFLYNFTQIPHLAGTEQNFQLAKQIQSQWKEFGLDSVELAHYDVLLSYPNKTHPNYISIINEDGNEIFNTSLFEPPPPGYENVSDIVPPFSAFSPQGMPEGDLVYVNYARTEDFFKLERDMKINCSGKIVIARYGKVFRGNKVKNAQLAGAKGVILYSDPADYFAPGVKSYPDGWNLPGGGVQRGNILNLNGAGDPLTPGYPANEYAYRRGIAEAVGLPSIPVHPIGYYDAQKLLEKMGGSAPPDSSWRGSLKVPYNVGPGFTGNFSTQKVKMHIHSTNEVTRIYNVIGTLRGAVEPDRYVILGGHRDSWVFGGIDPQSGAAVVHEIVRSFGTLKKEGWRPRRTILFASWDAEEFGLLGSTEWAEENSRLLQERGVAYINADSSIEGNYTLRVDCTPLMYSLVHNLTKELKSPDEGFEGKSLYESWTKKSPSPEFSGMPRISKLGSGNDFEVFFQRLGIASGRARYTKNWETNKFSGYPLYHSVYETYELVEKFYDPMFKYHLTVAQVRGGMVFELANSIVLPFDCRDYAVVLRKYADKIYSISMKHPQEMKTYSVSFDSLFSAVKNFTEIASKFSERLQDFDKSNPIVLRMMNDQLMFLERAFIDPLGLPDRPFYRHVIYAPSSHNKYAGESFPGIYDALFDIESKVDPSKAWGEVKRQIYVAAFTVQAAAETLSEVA", "experiment": "Competitive cell binding assay against 68Ga-labeled PSMA-10 radioligand", "details": "radioligand [68Ga]Ga-PSMA-10 0.75 nM, metal-free ligand", "method": "(§1) PSMA^+ LNCaP cells (ATCC CRL-1740) were cultured in RPMI medium supplemented with 10% fetal calf serum and 2 mmol/L L-glutamine (all from PAA). Cells were grown at 37° C. in humidified air with 5% CO2 and were harvested using trypsin-ethylenediaminetetraacetic acid (trypsin-EDTA; 0.25% trypsin, 0.02% EDTA, Invitrogen).\nThe competitive cell binding assay and internalization experiments were performed as described previously (4). Briefly, the cells (10^5 per well) were incubated with a 0.75 nM solution of ^68Ga-labeled radioligand [Glu-urea-Lys(Ahx)]2-HBED-CC (PSMA-10, precursor ordered from ABX, Radeberg, Germany) in the presence of 12 different concentrations of analyte (0-5000 nM, 100 μL/well). After incubation, the mixture was removed and the wells were washed 3 times with PBS using a multiscreen vacuum manifold (Millipore, Billerica, Mass.). Cell-bound radioactivity was measured using a gamma counter (Packard Cobra II, GMI, Minn., USA). The 50% inhibitory concentration (IC50) values were calculated by fitting the data using a nonlinear regression algorithm (GraphPad Software)."}, "PSMA+ LNCaP cells": {"system": "PSMA+ LNCaP cells", "experiment": "Internalization experiments (surface-bound and internalized fractions)", "format": "cell-based", "details": "30 nM radiolabeled compound, 45 min", "method": "as §1\nFor internalization experiments, 10^5 cells per well were seeded in poly-L-lysine coated 24-well cell culture plates 24 h before incubation. After washing, the cells were incubated with 30 nM of the radiolabeled compound for 45 min at 37° C. and at 4° C., respectively. Cellular uptake was terminated by washing 3 times with 1 mL of ice-cold PBS. To remove surface-bound radioactivity, cells were incubated twice with 0.5 mL glycine-HCl in PBS (50 mM, pH=2.8) for 5 min. The cells were washed with 1 mL of ice-cold PBS and lysed using 0.3 N NaOH (0.5 mL). The surface-bound and the internalized fractions were measured in a gamma counter. The cell uptake was calculated as percent of the initially added radioactivity bound to 10^5 cells [% ID/10^5 cells]."}, "PSMA": {"molecular_target": "PSMA (Homo sapiens, UniProt Q04609)", "sequence (Q04609 whole entry, species assumed)": "as the sequence (Q04609 whole entry) above", "details": "radioligand of the competitive binding assay; cited from earlier work"}, "[1]": {"experiment": "Biodistribution (organ distribution) of 68Ga-labeled compounds in LNCaP-tumor bearing mice", "format": "in vivo, BALB/c nu/nu mice", "details": "1 h p.i.", "method": "The precursor peptides [1 nmol in HEPES buffer (580 mg/ml), 40 μL] were added to 40 μL [^68Ga]Ga^3+ eluate (˜40 MBq). The pH was adjusted to 3.8 using 30% NaOH and 10% NaOH, respectively. The reaction mixture was incubated at 98° C. for 10 minutes. The radiochemical yield (RCY) was determined by HPLC.\nFor the experimental tumor models 5×10^6 cells of LNCaP (in 50% Matrigel; Becton Dickinson, Heidelberg, Germany) were subcutaneously inoculated into the right trunk of 7- to 8-week-old male BALB/c nu/nu mice (Charles River). The tumors were allowed to grow until approximately 1 cm^3 in size. The ^68Ga-labeled compounds were injected into a tail vein (1-2 MBq; 60 pmol). At 1 h after injection the animals were sacrificed. Organs of interest were dissected, blotted dry, and weighed. The radioactivity was measured using a gamma counter and calculated as % ID/g. All animal experiments complied with the current laws of the Federal Republic of Germany."}}}
{"compound": "CC1(C)C(/C=C/C2=C(Oc3ccc(S(=O)(=O)O)cc3)C(=C/C=C3/N(CCCCS(=O)(=O)O)c4ccc(S(=O)(=O)O)cc4C3(C)C)/CCC2)=[N+](CCCCCC(=O)NCCCC[C@H](NC(=O)CN2CCN(CC(=O)O)CCN(CC(=O)O)CCN(CC(=O)O)CC2)C(=O)NC[C@H]2CC[C@H](C(=O)N[C@@H](Cc3ccc4ccccc4c3)C(=O)NCCCC[C@H](NC(=O)N[C@@H](CCC(=O)O)C(=O)O)C(=O)O)CC2)c2ccc(S(=O)(=O)[O-])cc21", "note": "(stereo in doubt) [Glu-urea-Lys-2-Nal-Chx-Lys(IRDye800CW)-DOTA]", "values": [{"measurement": "IC50", "setting": "PSMA (PSMA+ LNCaP cells)", "result": "15.9 ± 5.46", "unit": "nM"}, {"measurement": "Specific cell surface bound", "setting": "PSMA+ LNCaP cells", "result": "25.51 ± 9.73", "unit": "% ID/10^5 cells"}, {"measurement": "Specific internalized", "setting": "PSMA+ LNCaP cells", "result": "27.64 ± 12.80", "unit": "% ID/10^5 cells"}]}
{"compound": "[Glu-urea-Lys(Ahx)]2-HBED-CC [[^68Ga]Ga -PSMA-10]", "values": [{"measurement": "Kd", "setting": "PSMA", "result": 2.1, "unit": "nM"}]}
{"compound": "^68Ga-Glu-urea-Lys-2-Nal-Chx-Lys(IRDye800CW)-DOTA", "values": [{"measurement": "Kidney uptake in comparison to the reference", "setting": "[1]; in words", "result": "significantly reduced"}, {"measurement": "Tumor uptake in comparison to the reference", "setting": "[1]; in words", "result": "comparable"}, {"measurement": "Organ distribution, Blood (Mean)", "setting": "[1]; tail vein, 60 pmol, n = 3", "result": 1.14, "unit": "% ID/g"}, {"measurement": "Organ distribution, Brain (Mean)", "setting": "[1]; tail vein, 60 pmol, n = 3", "result": 0.07, "unit": "% ID/g"}, {"measurement": "Organ distribution, Heart (Mean)", "setting": "[1]; tail vein, 60 pmol, n = 3", "result": 0.51, "unit": "% ID/g"}, {"measurement": "Organ distribution, Intestine (Mean)", "setting": "[1]; tail vein, 60 pmol, n = 3", "result": 0.43, "unit": "% ID/g"}, {"measurement": "Organ distribution, Kidney (Mean)", "setting": "[1]; tail vein, 60 pmol, n = 3", "result": 65.64, "unit": "% ID/g"}, {"measurement": "Organ distribution, Liver (Mean)", "setting": "[1]; tail vein, 60 pmol, n = 3", "result": 0.95, "unit": "% ID/g"}, {"measurement": "Organ distribution, Lung (Mean)", "setting": "[1]; tail vein, 60 pmol, n = 3", "result": 1.47, "unit": "% ID/g"}, {"measurement": "Organ distribution, Muscle (Mean)", "setting": "[1]; tail vein, 60 pmol, n = 3", "result": 0.34, "unit": "% ID/g"}, {"measurement": "Organ distribution, Spleen (Mean)", "setting": "[1]; tail vein, 60 pmol, n = 3", "result": 2.82, "unit": "% ID/g"}, {"measurement": "Organ distribution, Tumor (Mean)", "setting": "[1]; LNCaP tumor, tail vein, 60 pmol, n = 3", "result": 4.13, "unit": "% ID/g"}]}
